Assay results reported in patent US6491953B1, “Controlled release compositions and method” (Amcol International Corporation, priority 1999, dated 2002).

How the values were obtained:
Assay type in all cases: physicochemical
[1] = Stability (discoloration) of ascorbic acid compositions added to water
Protocol: The stability of the three compositions was tested by adding individual portions of the three compositions to water at 25° C. and at 45° C. A control solution of 1-ascorbic acid in water discolored after four hours at 45° C. and after five days at room temperature. […] A polymer-ascorbic acid solution, without the addition of a release retardant, also discolored during the test. Accordingly, a release retardant protects and stabilizes an active agent adsorbed onto an adsorbent polymer.

[2] = Adsorption / entrapment of solid and liquid materials on POLYPORE E 200 microparticles (Example 1); conditions: adsorbed on microparticles of Example 1 (POLYPORE E 200)
From the text: The adsorbent polymer microparticles made by the suspension polymerization technique include at least two polyunsaturated monomers, preferably allyl methacrylate and an ethylene glycol dimethacrylate, and, optionally, monounsaturated monomers. The microparticles are characterized by being open to their interior, due to either particle fracture upon removal of a porogen after polymerization or to subsequent milling. […] In a preferred embodiment, the broken sphere microparticles are characterized by a mean unit diameter from about 1 to about 50 microns, more preferably from about 1 to about 25 microns, most preferably, from about 1 to about 20 microns.
The copolymer powder of Example 1 was mixed with zinc pyrithione (solids having a particle size of 3 to 5 microns slurried in water) in an amount of 12 grams of slurry per one gram of the copolymer, then dried in an oven at 80° C. to evaporate water. […] Zinc pyrithione was supplied by Ruetger Nease Company, as mixture of 48% of zinc pyrithione, 51% water, and 1% zinc chloride, and is used as antidandruff component in hair care products, e.g., antidandruff shampoos.
The copolymer of Example 1 was loaded with a methanol/salicylic acid solution in an amount of 12 grams per gram, and dried in an oven at 80° C. to evaporate the methanol. […] Salicylic acid is an antiseptic and antifungal agent.
Retinol was dissolved in same amount of ether. The solution (5.5 grams) was adsorbed on 1 gram of the adsorbent polymer of Example 1. […] Usually retinol is in the form of sticky crystals, is light sensitive, and is skin irritant. Retinol is used in cosmetic formulations and as a vitamin.

[3] = Adsorption / entrapment of solid and liquid active agents on POLYPORE L 200 microparticles (Example 2); conditions: adsorbed on microparticles of Example 2 (POLYPORE L 200)
Protocol: The copolymer of Example 2 was loaded with a methanol/salicylic acid solution to an amount of 12 grams per gram, and dried in an oven at 80° C. to evaporate methanol. The resulting dry product was a white, fine powder, with […] entrapped salicylic acid, i.e., 2.8 grams per gram.
Retinol was dissolved in an equal weight amount of ether, then 5.5 grams of the solution was adsorbed on 1 gram of the adsorbent polymer of Example 2. Thereafter, ether was evacuated under vacuum, and a free-flowing light yellow powder was obtained. The adsorbed amount of retinol was 2.75 grams per gram, i.e., 73%. Usually, retinol is in form of sticky crystals, is light sensitive, and a skin irritant.
The microparticles of Example 2 (POLYPORE™ L 200) also had various other solid and liquid active agents adsorbed thereto, as shown in Table 2: […]

| Molecule | time after which solution discolored ([1]; in water at 45° C.) | time after which solution discolored ([1]; in water at room temperature) | Free-Flowing (g/g) adsorbed [2] [g/g] | Total (g/g) adsorbed [2] [g/g] | Free-Flowing (g/g) adsorbed [3] [g/g] | Total (g/g) adsorbed [3] [g/g] |
| --- | --- | --- | --- | --- | --- | --- |
| O=C1O[C@H]([C@@H](O)CO)C(O)=C1O [1-ascorbic acid] | four | five |  |  |  |  |
| COc1ccc(C(=O)c2ccccc2)c(O)c1 [Benzophenone-3] |  |  | 9.2 | 12.3 | 9.1 | 12.8 |
| CC(=O)OCc1ccccc1 [Benzyl Acetate] |  |  | 10.2 | 12.3 | 9.9 | 12.7 |
| Oc1cc(Cl)ccc1Oc1ccc(Cl)cc1Cl [IRGASAN DP 300, 5-chloro-2-(2,4-dichlorophenoxy)phenol] |  |  |  | 10.0 |  | 10.7 |
| Cyclomethicone [Cyclomethicone (DC 244)] |  |  | 9.6 | 12.0 | 10.8 | 15.0 |

Second part, the molecule after the results:

| time after which solution discolored ([1]; in water at 45° C.) | time after which solution discolored ([1]; in water at room temperature) | Free-Flowing (g/g) adsorbed [2] [g/g] | Total (g/g) adsorbed [2] [g/g] | Free-Flowing (g/g) adsorbed [3] [g/g] | Total (g/g) adsorbed [3] [g/g] | Molecule |
| --- | --- | --- | --- | --- | --- | --- |
|  |  | 6.0 | 8.0 | 7.6 | 10.0 | OCC(O)CO [Glycerin] |
|  |  | 8.0 | 10.7 | 9.5 | 11.4 | CCCCCCCCCCCCCC(=O)OC(C)C [Isopropyl Myristate] |
|  |  | 5.6 | 7.2 | 7.0 | 9.2 | CC(=O)Oc1c(C)c(C)c2c(c1C)CCC(C)(CCC[C@H](C)CCC[C@H](C)CCCC(C)C)O2 (stereo partly shown) [Vitamin E Acetate] |
